Assays:
FL(IPF)-tissues = assay: Ex vivo treatment of FL-lung tissues from IPF patients; assay type: cell-based, human; settings: for PAI-1 levels in fibroblasts isolated from IPF explants / Phosphorylation of Akt in fibroblasts from IPF explants / expression of PDGFR-β mRNA and protein in fibroblasts from IPF explants / miR-34a levels in fibroblasts isolated from IPF explants / p53 levels in fibroblasts isolated from IPF explants / uPA expression in fibroblasts isolated from IPF explants / uPAR expression in fibroblasts isolated from IPF explants / ECM synthetic rates of FL-lung explants: nutlin-3a 10 μM or CSP-4 10 nM, 3 to 7 days; for ECM synthetic rates of FL-lung explants: vs untreated, vehicle or CP; for production of ECM of fibroblasts from IPF explants / rate of proliferation of fibroblasts from IPF explants: vs FL-fibroblasts from untreated, vehicle- or CP-treated controls
Description: Freshly dissected FL-lung tissues from IPF patients are treated with nutlin-3a (10 μM) or CSP-4 (10 nM) for 3 to 7 days (see FIG. 13). Lung tissues are homogenized and tested for changes in ECM (hydroxyproline and desmosine). Controls include fibrotic lung (FL)-tissues from IPF patients treated with vehicle or control peptide, CP or naive lung tissues maintained in culture medium. Other controls include NL-tissues resected from histologically “normal” lungs. De-identified patient (“normal” and IPF) lungs that were not suitable for transplantation and donated for medical research are obtained through HAM (Edison, NJ) and the NDRI (Philadelphia, PA) and used for ex vivo studies. Fibroblasts are isolated from these tissues and analyzed for changes in p53, uPA, uPAR and PAI-1 expression, production of ECM and viability. Changes in rate of ECM synthesis are also measured. FL-tissue explants from patients with IPF have elevated synthesis of ECM when compared to expression levels in the slices of NL-tissues from control subjects. […] Phosphorylation of Akt and expression of PDGFR-β mRNA and protein also are reduced in fibroblasts from IPF explants treated with nutlin-3a or CSP-4.

FL-fibroblasts [1] = assay: Proliferation of cultured FL-fibroblasts (cell count); assay type: cell-based, human; settings: cells counted after 3 d
Description: (§1) FIGS. 8A-8C. Role of p53-fibrinolytic system cross-talk in nutlin-3a (NTL) or CSP-4-mediated inhibition of col-I expression in FL(IPF)-fibroblasts. (FIG. 8A) FL-fibroblasts were exposed to PBS, nutlin-3a (10 uM), CSP-4 (10 nM) or control peptide (CP) for 48 h. The cell lysates were immunoblotted for the expression of Col-I, PAI-1, p53, uPA and β-actin. (FIG. 8B) FL-fibroblasts cultured in 12 well plates in DMEM media were exposed to vehicle (PBS) or nutlin-3a, CSP-4 or CP. After 3 d, cells were detached and counted. (FIG. 8C) FL-fibroblasts were transduced with empty adenovirus vector alone (Ad-EV) or Ad-vector expressing p53 (Ad-p53), PAI-1 (Ad-PAI-1) or caveolin-1 (Ad-Cav-1). After 48 h, cell lysates were immunoblotted for Col-I, p53, PAI-1, uPA and β-actin.
(§2) FL-fibroblasts were exposed to PBS (control), nutlin-3a (10 μM), CSP-4 (10 nM) or CP for 48 hrs. Lysates were immunoblotted for the expression of Col-I, PAI-1, p53, and uPA. Cultured FL- were exposed to vehicle (PBS) or nutlin-3a, CSP-4 or CP and counted to assess proliferation. […] The process involves induction of p53 and PAI-1 expression, and concurrent inhibition of uPA.

FL-fibroblasts [2] = assay: Treatment of FL-fibroblasts with nutlin-3a or CSP-4 (findings stated in the summary); assay type: cell-based; settings: for miR-34a expression / production of ECM / uPAR expression: FL-fibroblasts
BLM-treated mice = assay: Ki-67 immunohistochemistry of lung sections of BLM-treated mice; assay type: in vivo; settings: IV treatment 14 d after BLM, sections seven days later
Description: FIGS. 12A-12C. CSP-4 or nutlin-3a (NTL) inhibits proliferation of FL-fibroblasts. Mice were exposed to BLM for 14 d to induce significant lung fibrosis or to saline (fibrosis controls). 14 d later, mice exposed to BLM were treated with CSP-4 or CP, or nutlin-3a (see FIGS. 10A-10D/11A-11D). (FIG. 12A): Lung sections (d 21 after BLM injury) were subjected to immunohistochemistry (IHC) for Ki-67 to assess proliferation. One representative example is shown (n=9). Fibroblasts were isolated from the lungs of mice exposed to saline, BLM or BLM+nutlin-3a (as described in FIG. 11A) were tested for the changes in expression of col-I, p53 and downstream uPA and PAI-1 proteins by Western blotting (FIG. 12B):, and mRNA by quantitative RT-PCR (FIG. 12C).
Mice exposed to BLM 14 days earlier were treated with CSP-4 or its control (CP) or Nutlin-3a IV (as in Examples IX and X). Seven days later lung sections were obtained and subjected to IHC for Ki-67 to assess cell proliferation (see FIG. 12A). […] Fibroblasts isolated from the lungs of these animals (as described in Example X) were tested for the changes in expression of col-I, p53 and downstream uPA and PAI-1 proteins by Western blotting, and mRNA by quantitative RT-PCR (see FIGS. 12B-12C).

FL(IPF)-fibroblasts = assay: Immunoblot of FL-fibroblast lysates for Col-I, PAI-1, p53 and uPA after exposure to nutlin-3a or CSP-4; assay type: cell-based, human; settings: nutlin-3a 10 μM, CSP-4 10 nM, 48 hrs
Description: as §1, §2

[3] = tested on: fibrotic lung tissue explants; assay: Ex vivo treatment of fibrotic lung tissue explants of BLM mice, col-I and α-SMA by Western blotting; assay type: cell-based; settings: CSP-4 10 nM, nutlin-3a 10 μM, 72 h
Description: FIG. 13. Inhibition of BLM-induced pulmonary fibrosis by ex vivo treatment of WT mice lung tissues with CSP-4 or nutlin-3a (NTL). Mice were exposed to intranasal BLM for 21 d to induce pulmonary fibrosis. These mice (n=3) were sacrificed, lungs were excised, chopped into small pieces and placed in culture dishes with DMEM medium containing 10% fetal bovine serum. The tissue samples were later treated with CSP-4 (10 nM), control peptide (CP) and nutlin-3a (TL) (10 μM) for 72 h. Conditioned medium and tissue lysates were prepared and analyzed for changes in col-I, a-SMA and β-actin by Western blotting.
Mice were exposed to intranasal BLM for 21 d to induce pulmonary fibrosis, sacrificed, and their lungs excised and chopped into small pieces and placed into culture medium. These tissue samples were thereafter treated with 10 nM CSP-4 peptide, control peptide (CP) or nutlin-3a for 72 h. Conditioned medium and tissue lysates were and analyzed for changes in col-I and α-SMA by Western blotting. […] The present inventors' results provided herein and in recent reports (e.g., Bhandary et al, 2012, 2013, supra), strongly support the conception that p53-mediated downstream changes in uPA and PAI-1 regulates viability of FL-fibroblasts.

Row | Compound | PAI-1 levels in fibroblasts isolated from IPF explants (FL(IPF)-tissues) | Phosphorylation of Akt in fibroblasts from IPF explants (FL(IPF)-tissues) | expression of PDGFR-β mRNA and protein in fibroblasts from IPF explants (FL(IPF)-tissues) | miR-34a levels in fibroblasts isolated from IPF explants (FL(IPF)-tissues) | p53 levels in fibroblasts isolated from IPF explants (FL(IPF)-tissues) | uPA expression in fibroblasts isolated from IPF explants (FL(IPF)-tissues) | uPAR expression in fibroblasts isolated from IPF explants (FL(IPF)-tissues) | ECM synthetic rates of FL-lung explants (FL(IPF)-tissues) | production of ECM of fibroblasts from IPF explants (FL(IPF)-tissues) | rate of proliferation of fibroblasts from IPF explants (FL(IPF)-tissues) | proliferation of FL-fibroblasts (FL-fibroblasts [1]) | miR-34a expression (FL-fibroblasts [2]) | production of ECM (FL-fibroblasts [2]) | uPAR expression (FL-fibroblasts [2]) | staining for ki-67 antigens in lung sections (BLM-treated mice) | PAI-1 expression (FL(IPF)-fibroblasts) | col-I expression (FL(IPF)-fibroblasts) | p53 expression (FL(IPF)-fibroblasts) | uPA expression (FL(IPF)-fibroblasts) | fibrosis ex vivo (changes in col-I and α-SMA) [3] | further results
1 | COc1ccc(C2=NC(c3ccc(Cl)cc3)C(c3ccc(Cl)cc3)N2C(=O)N2CCNC(=O)C2)c(OC(C)C)c1 (centres unmarked) [nutlin-3a, 4-2-4,5-dihydro-1H-imidazole-1-piperazin-2-one] | elevated levels | reduced | reduced | elevated levels | elevated levels | reduced | reduced | significantly reduced | significantly lower | significantly lower | inhibited | restore | inhibits | inhibition | significantly reduced | induction | inhibited | induction | inhibition | inhibited | apoptosis of fibrotic fibroblasts (FL-fibroblasts [2]; fibroblasts from lungs of patients with IPF and of mice with BLM-induced pulmonary fibrosis): results in apoptosis
2 | FTTFTVT [CSP-4] | elevated levels | reduced | reduced | elevated levels | elevated levels | reduced | reduced | significantly reduced | significantly lower | significantly lower | inhibited | restore | inhibits | inhibition | significantly reduced | induction | inhibited | induction | inhibition | inhibited | 

Reference: patent US12173089B2, “Inhibition of pulmonary fibrosis with nutlin-3A and peptides” (BOARD OF REGENTS, THE UNIVERSITY OF TEXAS SYSTEM, priority 2013, dated 2024)
